Reference: patent publication US20110002859A1, “CHEWING GUM CONTAINING EUCALYPTUS EXTRACT” (LOTTE CO., LTD., priority 2008, published 2011)
In brackets after ≈: the same amount, converted by molar mass.

Legend:
[1] = system: Capnocytophaga ochracea ATCC33596; assay: In vitro antibacterial activity, minimum inhibitory concentration (MIC); format: cell-based; settings: 37° C., anaerobic, 24 to 48 hours, turbidity 550 nm; read-out: MIC, bacterial strain d
Procedure: (§1) In vitro antibacterial activities of Macrocarpal A, macrocarpal B, and macrocarpal C were evaluated according to the following procedure. First, to 25 ml of a medium, added were 2.5 ml of various pre-cultured periodontopathic bacteria described below, and the whole was mixed well. A sample solution was prepared by diluting in two stages a sample stock solution on a 96-well plate by using a diluent. Within each well of the 96-well plate, 100 μl of the sample solution and 100 μl of a bacterial solution were mixed, and cultivated at 37° C. under an anaerobic condition for 24 to 48 hours. The turbidity (550 nm) of each well was measured with a microplate reader, the growth of the bacterium was assessed, and its minimum inhibitory concentration (MIC) was determined. […] (Used Bacterial Strain) d: Capnocytophaga ochracea ATCC33596

[2] = system: Prevotella melaninogenica ATCC25845; assay: as above; format: cell-based; settings: 37° C., anaerobic, 24 to 48 hours, turbidity 550 nm; read-out: MIC, bacterial strain c
Procedure: as §1, with “c: Prevotella melaninogenica ATCC25845” for “d: Capnocytophaga ochracea ATCC33596”

[3] = system: Porphyromonas gingivalis ATCC33277; assay: as above; format: cell-based; settings: 37° C., anaerobic, 24 to 48 hours, turbidity 550 nm; read-out: MIC, bacterial strain a
Procedure: as §1, with “a: Porphyromonas gingivalis ATCC33277” for “d: Capnocytophaga ochracea ATCC33596”

[4] = system: Prevotella intermedia ATCC25611; assay: as above; format: cell-based; settings: 37° C., anaerobic, 24 to 48 hours, turbidity 550 nm; read-out: MIC, bacterial strain b
Procedure: as §1, with “b: Prevotella intermedia ATCC25611” for “d: Capnocytophaga ochracea ATCC33596”

[5] = system: periodontopathic bacteria; assay: In vitro growth prevention of all tested periodontopathic bacteria; format: cell-based; settings: all four strains of Table 1
Procedure: In vitro antibacterial activities of Macrocarpal A, macrocarpal B, and macrocarpal C were evaluated according to the following procedure. First, to 25 ml of a medium, added were 2.5 ml of various pre-cultured periodontopathic bacteria described below, and the whole was mixed well. A sample solution was prepared by diluting in two stages a sample stock solution on a 96-well plate by using a diluent. Within each well of the 96-well plate, 100 μl of the sample solution and 100 μl of a bacterial solution were mixed, and cultivated at 37° C. under an anaerobic condition for 24 to 48 hours. The turbidity (550 nm) of each well was measured with a microplate reader, the growth of the bacterium was assessed, and its minimum inhibitory concentration (MIC) was determined.

[6] = system: periodontopathic bacteria; settings: background art; cited from earlier work

Row | MIC [1] [µg/mL] | MIC [2] [µg/mL] | MIC [3] [µg/mL] | MIC [4] [µg/mL] | Compound | concentration capable of preventing periodontopathic bacteria from growing up [5] [µg/mL] | antibacterial activities against periodontopathic bacteria [6]
1 | 0.39 (≈ 0.825 µM) | 0.78 (≈ 1.65 µM) | 0.195 (≈ 0.413 µM) | 0.195 (≈ 0.413 µM) | CC(C)C[C@@H](c1c(O)c(C=O)c(O)c(C=O)c1O)[C@@]1(C)CC[C@@H]2[C@@H]1[C@H]1[C@@H](CC[C@@]2(C)O)C1(C)C [Macrocarpal A, macrocarpal A] | 0.78 | 
2 | 1.56 (≈ 3.3 µM) | 3.13 (≈ 6.62 µM) | 0.78 (≈ 1.65 µM) | 1.58 (≈ 3.34 µM) | CC(C)C[C@H](c1c(O)c(C=O)c(O)c(C=O)c1O)[C@@]1(C)CC[C@@H]2[C@@H]1[C@H]1[C@@H](CC[C@@]2(C)O)C1(C)C [Macrocarpal B, macrocarpal B] | 3.13 | 
3 | 0.39 (≈ 0.858 µM) | 1.58 (≈ 3.48 µM) | 0.195 (≈ 0.429 µM) | 0.39 (≈ 0.858 µM) | C=C1CC[C@@H]2[C@H]([C@H]3[C@H]1CC[C@]3(C)[C@@H](CC(C)C)c1c(O)c(C=O)c(O)c(C=O)c1O)C2(C)C [Macrocarpal C, macrocarpal C] | 1.58 | 
4 |  |  |  |  | CC12CCC(CC1)C(C)(C)O2 [cineole] |  | weak antibacterial activities
